The values below come from the OPERA property sets (Mansouri et al. 2018).

Values after ≈ are worked out from the molar mass of the structure shown. Where a SMILES comes first, the peptide text is derived from it.

A word on the logP: it is the decadic logarithm of the partition coefficient of the neutral form, usually between octanol and water. In general, solubility refers to how much of the substance goes into solution per volume. Low values mean little dissolved substance, high ones much dissolved substance. The logD is the decadic logarithm of the distribution of all forms, ionised or not, between an organic phase and buffer at a given pH. Read a low logD as a more hydrophilic compound.

Details in one data set: not given
The compound `COC(=O)c1sccc1S(=O)(=O)NC(=O)Nc1nc(C)nc(OC)n1` returned a logP of 1.56.

`COCCn1cnc2[nH]c(=O)n(C)c(=N)c21` showed a logP of -1.49.

For `CC1=CCC(C(C)(C)O)CC1` (stereo not given), the logP came out at 2.98.

Compound `CC(=O)c1cccc(NCc2cnc3nc(N)nc(N)c3c2C)c1` registered a logP of 1.46.

On to `Cc1cccc(C)c1NC(=O)c1cc(S(N)(=O)=O)c(Cl)cc1O`, for which the logP is 2.19.

`CCOP(=S)(OCC)Oc1ccc(N)cc1` displayed a solubility of 1.49 mM (≈ 0.39 mg/mL).

As for `CCCCNC(=O)n1cc(F)c(=O)[nH]c1=O`, the solubility is 3.58 mM (≈ 0.82 mg/mL).

For the compound `O=c1ccn(C2OC(CO)C(O)C2O)c(=O)n1Cc1ccccc1` (stereo not given), the logP is 0.33.

`CC[C@H](C)[C@H](NC(=O)[C@@H](NC(=O)[C@@H](NC(C)=O)C(C)C)C(C)C)C(N)=O` (Ac-Val-Val-Ile-NH2) returned a logP of 0.49.

`Clc1cccc(-c2c(Cl)ccc(Cl)c2Cl)c1Cl` showed a logP of 6.04.

`Cc1ccc(C=C(C#N)C#N)o1` registered a logP of 2.03.

`CC(C)(C)[C@@H](O)[C@@H](Cc1ccc(Cl)cc1)n1cncn1` (single isomer, unassigned) gave a logP of 3.2.

On to `O=[N+]([O-])c1cc(C2CCCCC2)c(O)c([N+](=O)[O-])c1`, for which the logP turned out to be 4.12.

Take `O=c1c(Cl)c(Cl)cnn1-c1ccccc1`: the logP is 2.09.

Regarding `CCN(CC)P(=O)(N(CC)CC)N1CCCC1`, the logP was determined as 2.39.

On to `O=C(O)COc1cccc2ccccc12`, for which the log partition coefficient (logP) was found to be 2.6.

In the case of `N=C(N)NN=Cc1cccs1`, the logP is 0.98.

As for `CC(=O)N[C@@H](C)C(=O)N[C@@H](C)C(N)=O`, the logP was -2.

On to `C=CC(=O)NCCCN(C)C`, for which the logP turned out to be 0.

The compound `COc1sc(C(=O)Nc2nn[nH]n2)c(OC(C)C)c1Br` displayed a log partition coefficient (logP) of 1.35.

For `NC(N)=Nc1nc(CSCCC(N)=NS(N)(=O)=O)cs1`, the logP was -0.64.

The compound `C=C(C)C1CCC(C)(O)C1C` (stereo not given) gave a logP of 2.87.

On to `OCc1ccccc1F`, for which the logP was 1.31.

Still in this data set, the particulars now being: 20 °C.
The compound `CN(C)c1ccncc1` showed a solubility of 622 mM (≈ 76 mg/mL).

`N=C(N)N`: the solubility amounted to 31.1 mM (≈ 1.84 mg/mL).

Compound `CCc1ccc(C)nc1` gave a solubility of 99 mM (≈ 12 mg/mL).

As for `CCN(C(=O)n1nnn(-c2ccccc2Cl)c1=O)C1CCCCC1`, the solubility was 0.00658 mM (≈ 0.0023 mg/mL).

On to `O=c1c(Cl)c(Cl)cnn1-c1ccccc1`, for which the solubility was determined as 0.415 mM (≈ 0.1 mg/mL).

Staying with this data set, now noted: 22 °C.
`ClC=CCCl` (mixture of isomers) came in with a solubility of 14.5 mM.

Compound `O=[N+]([O-])c1ccc(Oc2c(Cl)cc(Cl)cc2Cl)cc1` yielded a solubility of 0.0024 mM (≈ 0.000764 mg/mL).

The data set is the same for the next values; noted with them: 23.0 °C.
In the case of `CCC(C)(O)CC(C)C` (stereo not given), the log10 OH rate constant (cm³/molecule/s) is -10.9.

Still in this data set, the particulars now being: 24 °C.
`CCCN(CCC)N=O` yielded a solubility of 99.9 mM (≈ 13 mg/mL).

Take `CN(Cc1ccccc1)N=O`: the solubility worked out at 30 mM (≈ 4.51 mg/mL).

Staying with this data set, now noted: 24.0 °C.
As to `C[Si]1(C)O[Si](C)(C)O[Si](C)(C)O[Si](C)(C)O1`, the log10 OH rate constant (cm³/molecule/s) was -12.

Staying with this data set, now noted: 25 °C.
On to `CC(C)(C)Br`, for which the solubility is 4.38 mM (≈ 0.6 mg/mL).

For the compound `CCCCOC(=O)c1ccc(C(=O)OCCCC)cc1`, the solubility was 0.00341 mM (≈ 0.00095 mg/mL).

`CN/C(=N\C#N)NCCSCc1nc[nH]c1C` displayed a solubility of 41 mM (≈ 10.3 mg/mL).

In the case of `Clc1ccc(/N=N/c2ccccc2)cc1`, the solubility turned out to be 0.00198 mM (≈ 0.00043 mg/mL).

Regarding `CC(C)(C)c1ccc(O)c(O)c1`, the solubility turned out to be 12 mM (≈ 2 mg/mL).

`O=C(O)C(Br)Br` returned a solubility of 9690 mM (≈ 2110 mg/mL).

`COc1ccc(C(c2ccc(OC)cc2)C(Cl)(Cl)Cl)cc1` returned a solubility of 0.000289 mM (≈ 0.0001 mg/mL).

With `CN(C)c1ccc(N=Nc2ccccc2)cc1`, the solubility was 0.00102 mM (≈ 0.00023 mg/mL).

Compound `CCC(Cl)(Cl)Cl` returned a solubility of 12.9 mM (≈ 1.9 mg/mL).

As to `CCCCCCCCCCCCC`, the solubility was 2.55e-05 mM (≈ 4.7e-06 mg/mL).

For the compound `CCCCCC1CCCC1`, the solubility worked out at 0.00082 mM (≈ 0.000115 mg/mL).

Regarding `Clc1cc2ccccc2cc1Cl`, the solubility was found to be 0.00044 mM (≈ 8.67e-05 mg/mL).

Consider `COc1ccccc1OCC(O)CO` (stereo not given), for which the solubility amounted to 252 mM (≈ 50 mg/mL).

On to `Cc1ccc2cc3c(ccc4ccccc43)c3c2c1CC3`, for which the solubility came to 1.08e-05 mM (≈ 2.9e-06 mg/mL).

`ClC1=C(Cl)C2(Cl)C3C(Cl)C=CC3C1(Cl)C2(Cl)Cl` (stereo not given): the solubility was found to be 0.000482 mM (≈ 0.00018 mg/mL).

In the case of `ClCc1ccccc1`, the solubility stood at 4.15 mM (≈ 0.525 mg/mL).

Consider `FC(F)(Cl)Cl`, for which the solubility was found to be 2.32 mM (≈ 0.28 mg/mL).

`CCCCCCCCCCCCCCCCCO`: the solubility came to 3.12e-05 mM (≈ 8e-06 mg/mL).

Staying with this data set, now noted: 25.0 °C.
Turning to `CCCN(CCC)C(=O)SCC`, the log10 OH rate constant (cm³/molecule/s) was -10.5.

In the case of `FC(F)OC(F)F`, the log10 OH rate constant (cm³/molecule/s) is -14.5.

In the case of `OC(C(F)(F)F)C(F)(F)F`, the log10 OH rate constant (cm³/molecule/s) was -13.6.

On to `CC1OCCO1`, for which the log10 OH rate constant (cm³/molecule/s) is -11.

`CC(C)Br` came in with a log10 OH rate constant (cm³/molecule/s) of -12.1.

The compound `ClC(Cl)C(Cl)Cl` came in with a log10 OH rate constant (cm³/molecule/s) of -12.6.

For `FC(F)Br`, the log10 OH rate constant (cm³/molecule/s) was -14.

Compound `FC(F)=C(F)C(F)(F)F` registered a log10 OH rate constant (cm³/molecule/s) of -11.7.

Regarding `FC(F)OC(Cl)C(F)(F)F` (stereo not given), the log10 OH rate constant (cm³/molecule/s) was -13.8.

Consider `O=CC(Cl)(Cl)Cl`, for which the log10 OH rate constant (cm³/molecule/s) is -11.8.

Still in this data set, the particulars now being: 27.0 °C.
Take `O=Cc1ccco1`: the log10 OH rate constant (cm³/molecule/s) was -10.5.

Turning to `CCC(=O)N(C)C`, the log10 OH rate constant (cm³/molecule/s) is -10.7.

Still in this data set, the particulars now being: pH 7.4.
Consider `COc1c(C)c2c(c(O)c1C/C=C(\C)CCC(=O)OCCN1CCOCC1)C(=O)OC2`, for which the logD is 2.38.
